Laboratory results as given in patent publication EP4596574A1, “GLP-1/GCG/GIP TRIPLE-RECEPTOR AGONIST AND USE THEREOF” (Sunshine Lake Pharma Co., Ltd., priority 2022, dated 2024).
Starred links: 1 amine or outer side, 2 acyl side, 3 side chain; linkers in the order of their positions; H or OH if unused. Non-standard residues stand in square brackets, D forms with d. Residues, ends and D or L forms follow the SMILES beside them. Groups on a side chain read outwards from the residue. *: point of attachment. C18 diacid = O=C(O)CCCCCCCCCCCCCCCCC(=O)*; αMePhe(2-F) = C[C@](N)(Cc1ccccc1F)C(=O)O; γGlu = O=C(O)[C@H](CCC(=O)[*:2])N[*:1]; AEEA = NCCOCCOCC(=O)O; Aib = CC(C)(N)C(=O)O

What was measured:
Type in all cases: cell-based
GIPR = target: T1, GIPR (Homo sapiens, UniProt P48546); test: In vitro cell activity, cAMP production in HEK293 cells expressing GIPR; details: HEK293-GIPR cells, cAMP; read-out: GIPR (EC50)
T1 construct: expressed in transfected cells; host or cells: HEK293 (HEK293-GIPR)
T1 sequence (P48546 22-466): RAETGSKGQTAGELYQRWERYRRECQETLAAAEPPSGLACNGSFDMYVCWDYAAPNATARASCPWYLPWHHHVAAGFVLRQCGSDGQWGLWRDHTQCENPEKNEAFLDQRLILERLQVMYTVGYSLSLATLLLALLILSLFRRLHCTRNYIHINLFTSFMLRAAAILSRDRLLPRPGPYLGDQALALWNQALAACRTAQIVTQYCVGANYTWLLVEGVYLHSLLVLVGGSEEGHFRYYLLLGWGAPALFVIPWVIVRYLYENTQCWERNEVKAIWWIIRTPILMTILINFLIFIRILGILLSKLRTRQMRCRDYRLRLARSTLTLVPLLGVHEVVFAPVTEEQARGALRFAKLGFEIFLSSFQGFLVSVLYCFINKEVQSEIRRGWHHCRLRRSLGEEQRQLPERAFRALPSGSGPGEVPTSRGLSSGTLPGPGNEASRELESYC
In short: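 HEK293 cells expressing human GIPR, thawed and diluted to 4×10^5 cells/mL, are stimulated with test compound. cAMP is measured by HTRF competition between cAMP-d2 and anti-cAMP cryptate. EC50 comes from a four-parameter nonlinear fit of signal ratio against concentration.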

GLP-1R = target: T2, GLP-1R (Homo sapiens, UniProt P43220); test: In vitro cell activity, cAMP production in HEK293 cells expressing GLP-1R; details: HEK293-GLP-1R cells, cAMP; read-out: GLP-1R (EC50)
T2 construct: expressed in transfected cells; host or cells: HEK293 (HEK293-GLP-1R)
In short: (§1)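 HEK293 transfectants, 4×10^5 cells/mL, 384-well. Detection: cAMP-d2 + anti-cAMP cryptate 1:1, RT 1 h dark or 4 °C o/n. Read 665/620 nm; 4-parameter nonlinear fit → EC50.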

GCGR = target: T3, GCGR (Homo sapiens, UniProt P47871); test: In vitro cell activity, cAMP production in HEK293 cells expressing GCGR; details: HEK293-GCGR cells, cAMP; read-out: GCGR (EC50)
T3 construct: expressed in transfected cells; host or cells: HEK293 (HEK293-GCGR)
In short: as §1

T3 sequence (P47871 26-477, species assumed): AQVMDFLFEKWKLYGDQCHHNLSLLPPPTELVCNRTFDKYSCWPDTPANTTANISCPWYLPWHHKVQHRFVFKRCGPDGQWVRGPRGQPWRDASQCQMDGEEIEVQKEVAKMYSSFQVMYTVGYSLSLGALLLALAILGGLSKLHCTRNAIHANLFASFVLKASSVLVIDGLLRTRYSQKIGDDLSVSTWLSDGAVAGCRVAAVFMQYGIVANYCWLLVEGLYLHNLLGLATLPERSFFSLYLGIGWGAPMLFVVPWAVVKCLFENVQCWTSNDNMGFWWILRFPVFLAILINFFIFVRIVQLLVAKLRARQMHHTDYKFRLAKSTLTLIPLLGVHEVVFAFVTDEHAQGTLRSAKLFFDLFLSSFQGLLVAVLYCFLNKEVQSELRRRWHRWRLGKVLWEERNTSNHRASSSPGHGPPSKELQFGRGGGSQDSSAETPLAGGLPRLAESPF
T2 sequence (P43220 24-463, species assumed): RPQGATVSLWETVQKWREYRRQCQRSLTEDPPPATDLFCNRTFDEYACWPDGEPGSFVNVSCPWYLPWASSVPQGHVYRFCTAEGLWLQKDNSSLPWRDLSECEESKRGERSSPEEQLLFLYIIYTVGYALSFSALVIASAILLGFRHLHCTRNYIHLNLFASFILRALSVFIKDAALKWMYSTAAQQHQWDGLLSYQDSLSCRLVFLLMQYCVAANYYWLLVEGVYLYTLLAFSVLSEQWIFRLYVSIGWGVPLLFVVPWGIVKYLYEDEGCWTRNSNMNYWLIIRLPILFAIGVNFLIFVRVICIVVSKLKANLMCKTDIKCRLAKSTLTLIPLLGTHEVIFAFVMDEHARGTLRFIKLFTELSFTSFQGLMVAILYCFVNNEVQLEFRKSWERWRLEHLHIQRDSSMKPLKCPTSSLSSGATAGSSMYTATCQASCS

SMILES: CC[C@H](C)[C@H](NC(=O)[C@H](CO)NC(=O)[C@H](Cc1ccc(O)cc1)NC(=O)[C@H](CC(=O)O)NC(=O)[C@H](CO)NC(=O)[C@@H](NC(=O)[C@](C)(Cc1ccccc1F)NC(=O)[C@@H](NC(=O)CNC(=O)[C@H](Cc1c[nH]cn1)NC(=O)C(C)(C)NC(=O)[C@@H](N)Cc1ccc(O)cc1)[C@@H](C)O)[C@@H](C)O)C(=O)N[C@@H](CC(C)C)C(=O)N[C@@H](CC(C)C)C(=O)N[C@@H](CC(=O)O)C(=O)N[C@@H](CCC(=O)O)C(=O)N[C@@H](CCCCNC(=O)COCCOCCNC(=O)CC[C@H](NC(=O)CCCCCCCCCCCCCCCCC(=O)O)C(=O)O)C(=O)N[C@@H](C)C(=O)N[C@@H](CCC(N)=O)C(=O)NC(C)(C)C(=O)N[C@@H](CCC(=O)O)C(=O)N[C@@H](Cc1ccccc1)C(=O)N[C@H](C(=O)N[C@@H](CCC(=O)O)C(=O)N[C@@H](Cc1c[nH]c2ccccc12)C(=O)N[C@@H](CC(C)C)C(=O)N[C@@H](CC(C)C)C(=O)N[C@@H](C)C(=O)NCC(=O)NCC(=O)N1CCC[C@H]1C(=O)N[C@@H](CO)C(=O)N[C@@H](CO)C(=O)NCC(=O)N[C@@H](C)C(=O)N1CCC[C@H]1C(=O)N1CCC[C@H]1C(=O)N1CCC[C@H]1C(=O)N[C@@H](CO)C(N)=O)[C@@H](C)CC [HEC-PT107]
- EC50 (GIPR): 0.079 nM
- EC50 (GLP-1R): 0.267 nM
- EC50 (GCGR): 3.56 nM

SMILES: CC[C@H](C)[C@H](NC(=O)[C@H](Cc1ccccc1)NC(=O)[C@H](C)NC(=O)[C@H](CCC(N)=O)NC(=O)[C@H](CCC(N)=O)NC(=O)[C@H](CCCNC(=N)N)NC(=O)[C@@H](NC(=O)[C@H](CCCNC(=N)N)NC(=O)[C@H](CC(=O)O)NC(=O)[C@H](CCCCNC(=O)COCCOCCNC(=O)CC[C@H](NC(=O)CCCCCCCCCCCCCCCCC(=O)O)C(=O)O)NC(=O)[C@H](CC(C)C)NC(=O)[C@@H](NC(=O)[C@H](CO)NC(=O)[C@H](Cc1ccc(O)cc1)NC(=O)[C@H](CC(=O)O)NC(=O)[C@H](CO)NC(=O)[C@@H](NC(=O)[C@](C)(Cc1ccccc1F)NC(=O)[C@@H](NC(=O)CNC(=O)[C@H](CCC(N)=O)NC(=O)C(C)(C)NC(=O)[C@@H](N)Cc1ccc(O)cc1)[C@@H](C)O)[C@@H](C)O)[C@@H](C)CC)[C@@H](C)CC)C(=O)N[C@@H](CCC(=O)O)C(=O)N[C@@H](Cc1ccc(O)cc1)C(=O)N[C@@H](CC(C)C)C(=O)N[C@@H](CC(C)C)C(=O)N[C@@H](C)C(=O)NCC(=O)NCC(=O)N1CCC[C@H]1C(=O)N[C@@H](CO)C(=O)N[C@@H](CO)C(=O)NCC(=O)N[C@@H](C)C(=O)N1CCC[C@H]1C(=O)N1CCC[C@H]1C(=O)N1CCC[C@H]1C(=O)N[C@@H](CO)C(=O)O [HEC-PT147] (H-Y[Aib]QGT[αMePhe(2-F)]TSDYSILK([AEEA-γGlu-C18 diacid])DRIRQQAFIEYLLAGGPSSGAPPPS-OH)
- EC50 (GIPR): 0.0861 nM
- EC50 (GLP-1R): 0.174 nM
- EC50 (GCGR): 0.17 nM

SMILES: CC[C@H](C)[C@H](NC(=O)[C@H](Cc1ccccc1)NC(=O)[C@H](CC(=O)O)NC(=O)[C@H](CCCNC(=N)N)NC(=O)[C@H](CCC(N)=O)NC(=O)[C@H](C)NC(=O)[C@H](CCCCNC(=O)COCCOCCNC(=O)CC[C@H](NC(=O)CCCCCCCCCCCCCCCCCCC(=O)O)C(=O)O)NC(=O)[C@H](CCC(=O)O)NC(=O)[C@H](CC(=O)O)NC(=O)[C@H](CC(C)C)NC(=O)[C@H](CC(C)C)NC(=O)[C@@H](NC(=O)[C@H](CO)NC(=O)[C@H](Cc1ccc(O)cc1)NC(=O)[C@H](CC(=O)O)NC(=O)[C@H](CO)NC(=O)[C@@H](NC(=O)[C@](C)(Cc1ccccc1F)NC(=O)[C@@H](NC(=O)CNC(=O)[C@H](Cc1c[nH]cn1)NC(=O)C(C)(C)NC(=O)[C@@H](N)Cc1ccc(O)cc1)[C@@H](C)O)[C@@H](C)O)[C@@H](C)CC)C(=O)N[C@@H](CCC(=O)O)C(=O)N[C@@H](Cc1c[nH]c2ccccc12)C(=O)N[C@@H](CC(C)C)C(=O)N[C@@H](CC(C)C)C(=O)N[C@@H](C)C(=O)NCC(=O)NCC(=O)N1CCC[C@H]1C(=O)N[C@@H](CO)C(=O)N[C@@H](CO)C(=O)NCC(=O)N[C@@H](C)C(=O)N1CCC[C@H]1C(=O)N1CCC[C@H]1C(=O)N1CCC[C@H]1C(=O)N[C@@H](CO)C(=O)O [HEC-PT65]
- EC50 (GIPR): 0.157 nM
- EC50 (GLP-1R): 0.624 nM
- EC50 (GCGR): 1.36 nM

SMILES: CC[C@H](C)[C@H](NC(=O)[C@H](Cc1ccccc1)NC(=O)[C@H](C)NC(=O)[C@H](CCCCNC(=O)COCCOCCNC(=O)CC[C@H](NC(=O)CCCCCCCCCCCCCCCCC(=O)O)C(=O)O)NC(=O)[C@H](CCC(N)=O)NC(=O)[C@H](CCCNC(=N)N)NC(=O)[C@@H](NC(=O)[C@H](CCCNC(=N)N)NC(=O)[C@H](CC(=O)O)NC(=O)[C@H](CC(C)C)NC(=O)[C@H](CC(C)C)NC(=O)[C@@H](NC(=O)[C@H](CO)NC(=O)[C@H](Cc1ccc(O)cc1)NC(=O)[C@H](CC(=O)O)NC(=O)[C@H](CO)NC(=O)[C@@H](NC(=O)[C@](C)(Cc1ccccc1F)NC(=O)[C@@H](NC(=O)CNC(=O)[C@H](CCC(N)=O)NC(=O)C(C)(C)NC(=O)[C@@H](N)Cc1ccc(O)cc1)[C@@H](C)O)[C@@H](C)O)[C@@H](C)CC)[C@@H](C)CC)C(=O)N[C@@H](CCC(=O)O)C(=O)N[C@@H](Cc1ccc(O)cc1)C(=O)N[C@@H](CC(C)C)C(=O)N[C@@H](CC(C)C)C(=O)N[C@@H](CCC(=O)O)C(=O)NCC(=O)NCC(=O)N1CCC[C@H]1C(=O)N[C@@H](CO)C(=O)N[C@@H](CO)C(=O)NCC(=O)N[C@@H](C)C(=O)N1CCC[C@H]1C(=O)N1CCC[C@H]1C(=O)N1CCC[C@H]1C(=O)N[C@@H](CO)C(=O)O [HEC-PT126]
- EC50 (GIPR): 0.0589 nM
- EC50 (GLP-1R): 0.861 nM
- EC50 (GCGR): 0.0319 nM

SMILES: CC[C@H](C)[C@H](NC(=O)[C@H](Cc1ccccc1)NC(=O)[C@H](CCC(=O)O)NC(=O)[C@H](CCC(N)=O)NC(=O)[C@H](CCC(N)=O)NC(=O)[C@H](C)NC(=O)[C@H](CCCCNC(=O)COCCOCCNC(=O)CC[C@H](NC(=O)CCCCCCCCCCCCCCCCCCC(=O)O)C(=O)O)NC(=O)[C@H](CCC(=O)O)NC(=O)[C@H](CC(=O)O)NC(=O)[C@H](CC(C)C)NC(=O)[C@H](CC(C)C)NC(=O)[C@@H](NC(=O)[C@H](CO)NC(=O)[C@H](Cc1ccc(O)cc1)NC(=O)[C@H](CC(=O)O)NC(=O)[C@H](CO)NC(=O)[C@@H](NC(=O)[C@](C)(Cc1ccccc1F)NC(=O)[C@@H](NC(=O)CNC(=O)[C@H](CCC(N)=O)NC(=O)C(C)(C)NC(=O)[C@@H](N)Cc1ccc(O)cc1)[C@@H](C)O)[C@@H](C)O)[C@@H](C)CC)C(=O)N[C@@H](CCC(=O)O)C(=O)N[C@@H](Cc1c[nH]c2ccccc12)C(=O)N[C@@H](CC(C)C)C(=O)N[C@@H](CC(C)C)C(=O)N[C@@H](C)C(=O)NCC(=O)NCC(=O)N1CCC[C@H]1C(=O)N[C@@H](CO)C(=O)N[C@@H](CO)C(=O)NCC(=O)N[C@@H](C)C(=O)N1CCC[C@H]1C(=O)N1CCC[C@H]1C(=O)N1CCC[C@H]1C(=O)N[C@@H](CO)C(=O)O [HEC-PT90]
- EC50 (GIPR): 0.186 nM
- EC50 (GLP-1R): 0.313 nM
- EC50 (GCGR): 7.07 nM

SMILES: CC[C@H](C)[C@H](NC(=O)[C@H](CCCNC(=N)N)NC(=O)[C@H](CC(=O)O)NC(=O)[C@H](CCCCNC(=O)COCCOCCNC(=O)CC[C@H](NC(=O)CCCCCCCCCCCCCCCCC(=O)O)C(=O)O)NC(=O)[C@H](CC(C)C)NC(=O)[C@@H](NC(=O)[C@H](CO)NC(=O)[C@H](Cc1ccc(O)cc1)NC(=O)[C@H](CC(=O)O)NC(=O)[C@H](CO)NC(=O)[C@@H](NC(=O)[C@](C)(Cc1ccccc1F)NC(=O)[C@@H](NC(=O)CNC(=O)[C@H](CCC(N)=O)NC(=O)C(C)(C)NC(=O)[C@@H](N)Cc1ccc(O)cc1)[C@@H](C)O)[C@@H](C)O)[C@@H](C)CC)C(=O)N[C@@H](C)C(=O)N[C@@H](CCC(N)=O)C(=O)N[C@@H](CCCNC(=N)N)C(=O)N[C@@H](C)C(=O)N[C@@H](Cc1ccccc1)C(=O)N[C@H](C(=O)N[C@@H](CCC(=O)O)C(=O)N[C@@H](Cc1ccc(O)cc1)C(=O)N[C@@H](CC(C)C)C(=O)N[C@@H](CC(C)C)C(=O)N[C@@H](CCC(=O)O)C(=O)NCC(=O)NCC(=O)N1CCC[C@H]1C(=O)N[C@@H](CO)C(=O)N[C@@H](CO)C(=O)NCC(=O)N[C@@H](C)C(=O)N1CCC[C@H]1C(=O)N1CCC[C@H]1C(=O)N1CCC[C@H]1C(=O)N[C@@H](CO)C(=O)O)[C@@H](C)CC [HEC-PT142] (H-Y[Aib]QGT[αMePhe(2-F)]TSDYSILK([AEEA-γGlu-C18 diacid])DRIAQRAFIEYLLEGGPSSGAPPPS-OH)
- EC50 (GIPR): 0.142 nM
- EC50 (GLP-1R): 0.16 nM
- EC50 (GCGR): 0.113 nM
